Data reported in the OPERA property sets (Mansouri et al. 2018).

| logP | Compound |
| --- | --- |
| 2.17 | CC(=O)Nc1cc(C)cc(C)c1 |
| 1.09 | COc1ccc(NC(C)=O)c([N+](=O)[O-])c1 |
| 0.63 | NC(=O)c1c(F)cccc1Br |
| 2.86 | CC(=O)Nc1ccc(Br)c(Cl)c1F |
| 1.49 | CC(=O)Nc1ccc(C)cc1[N+](=O)[O-] |
| 0.52 | N#Cc1cccc(C(N)=O)c1 |
| 2.24 | CC(=O)Nc1cc(C(F)(F)F)ccc1Cl |
| 1.62 | CC(=O)Nc1ccccc1I |
| 3.17 | CC(=O)Nc1cc(Cl)cc(Cl)c1 |
| 1.03 | CC(=O)Nc1ccccc1F |
| 0.25 | NC(=O)c1c(F)cccc1F |
| 3.18 | CCc1ccccc1OC |
| 1.85 | CCc1cccc(CC)c1NC(C)=O |
| 1.47 | CC(=O)Nc1cc(C)ccc1C |
| 1.02 | N#Cc1ccccc1[N+](=O)[O-] |
| 1.34 | CC(=O)Nc1ccccc1Br |
| 1.39 | CC(C)c1ccccc1C(N)=O |
| 0.1 | Cc1cccc([N+](=O)[O-])c1C(N)=O |
| 1.17 | CCc1ccccc1C(N)=O |
| 0.01 | CC(=O)Nc1ccc(C(N)=O)cc1 |
| 1.7 | CC(=O)Nc1ccc(C)cc1 |
| 2.1 | CCc1cccc(C(C)C)c1NC(C)=O |

| logP | Compound |
| --- | --- |
| 0.6 | CC(=O)Nc1cc(C)c(O)cc1C |
| 2.69 | CC(=O)Nc1ccc(C)c(Cl)c1 |
| 1.41 | CCc1cccc(C)c1NC(C)=O |
| 2.02 | COc1cc(Br)ccc1NC(C)=O |
| 0.12 | NC(=O)c1c(Cl)cccc1[N+](=O)[O-] |
| 2.37 | CC(=O)Nc1ccccc1Oc1ccccc1 |
| 2.41 | CC(=O)Nc1c(C(C)C)cccc1C(C)C |
| 1.28 | COc1c(C)cccc1NC(C)=O |
| 1.83 | CC(=O)Nc1cccc(Cl)c1F |
| 2.72 | CCCc1cc(NC(C)=O)ccc1OC |
| 2.1 | CC(=O)Nc1ccc(C)c(C)c1 |
| 3.1 | CCCCc1ccc(NC(C)=O)c(C)c1 |
| 0.93 | NC(=O)c1ccccc1I |
| 1 | NC(=O)c1c(Cl)cccc1Br |
| 3.27 | CC(=O)Nc1cc(Cl)cc(C(F)(F)F)c1Cl |
| 3.3 | CCCCc1ccc(NC(C)=O)cc1 |
| 3.72 | CC(=O)Nc1cc(C(F)(F)F)cc(C(F)(F)F)c1 |
| -0.22 | COc1cccc(OC)c1C(N)=O |
| 0.59 | NC(=O)c1ccccc1F |
| 2.68 | COc1ccccc1Cl |
| 2.11 | CC(=O)Nc1cc([N+](=O)[O-])c(Br)cc1F |
| 2.9 | CC(=O)Nc1cc(Cl)c(F)c(Cl)c1F |

| logP | Compound |
| --- | --- |
| 0.9 | Cc1cccc(C)c1C(N)=O |
| 2.03 | CC(=O)Nc1ccc(Br)cc1C |
| 0.64 | NC(=O)c1ccccc1Cl |
| 0.68 | NC(=O)c1ccccc1C(F)(F)F |
| 2.34 | CC(=O)Nc1cc(C(F)(F)F)c(F)cc1F |
| 0.59 | COc1cccc(Cl)c1C(N)=O |
| 0.99 | N#Cc1ccccc1C#N |
| 1.91 | CC(=O)Nc1ccc(Cl)cc1F |
| 2.22 | CC(=O)Nc1c(F)ccc(C(F)(F)F)c1Br |
| 3.1 | CCCCc1ccc(NC(C)=O)c([N+](=O)[O-])c1 |
| 3.15 | CC(=O)Nc1cc(Cl)cc(C(F)(F)F)c1F |
| 2.76 | COc1ccc(C)c(OC)c1 |
| 3.33 | CCc1cc(NC(C)=O)ccc1Br |
| 2.2 | CCc1ccc(NC(C)=O)cc1 |
| 1.32 | CC(=O)Nc1c(Cl)cccc1Cl |
| 1.18 | CC(=O)Nc1c(C)cc(C)cc1[N+](=O)[O-] |
| 0.89 | Cc1cccc(Cl)c1C(N)=O |
| 1.17 | CC(=O)Nc1ccccc1C(F)(F)F |
| 1.07 | CC(=O)Nc1c(C)cccc1C |
| 1.65 | CC(=O)Nc1cccc(F)c1 |
| 1.82 | CC(=O)Nc1cccc(Cl)c1C |
| 1.53 | CC(=O)Nc1c(Br)cccc1Br |

| logP | Compound |
| --- | --- |
| 3.76 | CC(=O)Nc1cc(Cl)c(Cl)c(Cl)c1 |
| 3.26 | CC(=O)Nc1cc(Cl)cc(C(F)(F)F)c1Br |
| 3.28 | CC(=O)Nc1cc(C)c(Br)c(C)c1 |
| 2.73 | CC(=O)Nc1ccc(Br)c(C)c1Cl |
| 2.68 | COc1cccc([N+](=O)[O-])c1C |
| 2.31 | CC(=O)Nc1cccc(Br)c1 |
| 3.17 | CC(=O)Nc1cc(C(F)(F)F)c(Br)cc1F |
| 1.47 | CC(=O)Nc1cccc([N+](=O)[O-])c1 |
| 0.77 | NC(=O)c1ccccc1Br |
| 2.18 | CC(=O)Nc1ccc(Cl)cc1Cl |
| 1.3 | CCOc1ccc(C(N)=O)cc1 |
| 2.02 | CC(=O)Nc1ccccc1-c1ccccc1 |
| 2.24 | CC(=O)Nc1cc(C(F)(F)F)ccc1F |
| 2.88 | CC(=O)Nc1ccc(Cl)c(Cl)c1Cl |
| 1.7 | CC(=O)Nc1c(F)c(F)c(F)c(F)c1F |
| 2.76 | C=CCOc1cc(NC(C)=O)c(F)cc1Cl |
| 3.04 | CC(=O)Nc1cc(Cl)cc(Cl)c1Br |
| 3.24 | CC(=O)Nc1cc(C(F)(F)F)c(Cl)cc1Cl |
| 2.19 | CC(=O)Nc1cc(Cl)ccc1Cl |
| 3.33 | CC(=O)Nc1ccc(Cl)c(C(F)(F)F)c1 |
| 3.71 | CC(=O)Nc1cc(OC(F)(F)F)c(Cl)cc1Cl |
| 3.39 | CCCCc1ccc(NC(C)=O)c(Br)c1 |

| logP | Compound |
| --- | --- |
| 0.48 | N#Cc1ccc(C(N)=O)cc1 |
| 1.32 | CCc1ccccc1NC(C)=O |
| 3.34 | CC(C)c1ccccc1[N+](=O)[O-] |
| 1.98 | CC(=O)Nc1ccc(Cl)cc1C(F)(F)F |
| 0.49 | NC(=O)c1c(F)cccc1Cl |
| 2.62 | CC(=O)Nc1ccc(OC(F)(F)F)cc1 |
| 2.14 | COc1ccccc1F |
| 1.22 | CC(=O)Nc1c(C)cccc1Cl |
| 0.69 | CC(=O)Nc1c(F)cccc1F |
| 2.27 | CCc1cc(Br)ccc1NC(C)=O |
| 2.69 | CC(=O)Nc1ccc(Br)c(Cl)c1C |
| 2.86 | COc1ccccc1Br |
| 1 | NC(=O)c1c(Br)cccc1Br |
| 2.15 | CC(=O)Nc1cccc(Cl)c1 |
| 2.86 | CC(=O)Nc1cc(F)cc(C(F)(F)F)c1Cl |
| 0.28 | NC(=O)c1c(Br)cccc1[N+](=O)[O-] |
| 1.78 | CC(=O)Nc1ccc(Cl)cc1[N+](=O)[O-] |
| 2.12 | CC(=O)Nc1c(C)cc(Br)cc1C |
| 3.41 | CC(=O)Nc1cc(Br)cc(C(F)(F)F)c1Cl |
| 1.3 | COc1cccc(NC(C)=O)c1 |
| 3.64 | CCCCc1ccc(NC(C)=O)cc1C |
| 0.77 | NC(=O)c1c(Cl)cccc1Cl |

| logP | Compound |
| --- | --- |
| 1.13 | COc1cccc(NC(C)=O)c1C |
| 2.87 | COc1cccc(OC)c1C |
| 0.76 | Cc1ccccc1C(N)=O |
| 2.09 | CC(=O)Nc1cccc(Cl)c1Cl |
| 2.5 | CC(=O)Nc1cc(C)c(C)c(C)c1 |
| 1.76 | CC(=O)Nc1ccc(C)c(C)c1C |
| 3.02 | CC(=O)Nc1cc(C(F)(F)F)c(Cl)cc1F |
| 3 | CC(=O)Nc1ccc(Cl)c(Cl)c1 |
| 1.68 | COc1c(Cl)cccc1NC(C)=O |
| 2.69 | COc1ccc(OC)c(Cl)c1 |
| 2.51 | CC(C)(C)c1ccc(C(N)=O)cc1 |
| -0.26 | COc1cccc([N+](=O)[O-])c1C(N)=O |
| 1.46 | CC(=O)Nc1ccc(C)cc1C |
| 1.82 | CC(=O)Nc1cc(Cl)ccc1C |
| 1.35 | CC(=O)Nc1cccc(C)c1C |
| 0.61 | CC(=O)Nc1c(C)cccc1[N+](=O)[O-] |
| 2.8 | CC(=O)Nc1ccc(Br)c(C)c1 |
| 0.71 | COc1ccccc1C(=O)N(C)C |
| 3.27 | CC(=O)Nc1cc(C(F)(F)F)cc(Cl)c1Cl |
| 2.21 | COc1cccc(OC)c1 |
| 1.57 | CC(=O)Nc1ccc(Oc2ccccn2)cc1 |
| 1.81 | COc1ccc(NC(C)=O)cc1Cl |

| Compound | logP |
| --- | --- |
| CC(=O)Nc1c([N+](=O)[O-])cccc1[N+](=O)[O-] | 0.56 |
| O=[N+]([O-])c1cc(C(F)(F)F)cc([N+](=O)[O-])c1Cl | 2.5 |
| O=[N+]([O-])c1ccc(Cl)cc1[N+](=O)[O-] | 2.18 |
